This is an account of results in the supplement of paper PMC11061612.

In assay [1] the test system is U-698-M. The assay is described as follows: Bliss excess, mean over the matrix (fraction); higher = more synergy. To be noted: first compound max 1 µM, U-[…], B-Cell Non-Hodgkin's Lymphoma, 7x7. Put shortly:
(§1)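 Cell lines grown in DMEM/F12 or RPMI with 10% FBS were plated in 1536-well plates and held 24 hours at 37°C, 5% CO2 before 72 hours of exposure to two-drug dose matrices, with DMSO typically at 0.2%. CellTiter-Glo 2.0 luminescence gave viability, which was converted to inhibition. Vehicle wells were set to 0 and blank wells to 1. Combination Emax is the second-highest inhibition in the matrix, and Bliss excess is the observed combination effect minus the expected EA + EB − EA·EB, where EA and EB are the single-agent effects.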

The subject of assay [2] is U-698-M. As to the kind of experiment: combination Emax (second highest fraction inhibited in the dose matrix, 72 h); higher = more inhibition. To be noted: first compound max 1 µM, B-Cell Non-Hodgkin's Lymphoma. Put shortly:
as §1

[3] abbreviates: partner max 3 µM, 7x7, may be a limit of the assay.
Setting [4] is: partner max 1 µM, 7x7, may be a limit of the assay.
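For Bliss excess, mean over the matrix in this document: after 72 h of two-drug dosing.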

Turning to `COc1nnc2ccc(N3CCC(c4ccc(OCCN5CCN(C)C(=O)[C@H]5C)cc4)CC3)nn12` [AZD5153] + CC1(C)CCC(CN2CCN(c3ccc(C(=O)NS(=O)(=O)c4ccc(NCC5CCOCC5)c([N+](=O)[O-])c4)c(Oc4cnc5[nH]ccc5c4)c3)CC2)=C(c2ccc(Cl)cc2)C1 [Venetoclax], in the assay with U-698-M [1] (partner max 1 µM), the Bliss excess is -0.0463. Further, the “combination Emax” value in the assay on U-698-M [2] (partner max 1 µM, 7x7) was 0.671.

In the case of `COc1nnc2ccc(N3CCC(c4ccc(OCCN5CCN(C)C(=O)[C@H]5C)cc4)CC3)nn12` [AZD5153] + CCN(CCO)CCCOc1ccc2c(Nc3cc(CC(=O)Nc4cccc(F)c4)[nH]n3)ncnc2c1 [AZD2811], the Bliss excess with U-698-M [1] (partner max 1 µM) was -0.0563. The “combination Emax” value in the assay on U-698-M [2] (partner max 1 µM, 7x7) came to 0.673.

For the compound `COc1nnc2ccc(N3CCC(c4ccc(OCCN5CCN(C)C(=O)[C@H]5C)cc4)CC3)nn12` [AZD5153] + C[C@@H]1COCCN1C2=NC(=NC(=C2)C3(CC3)[S@](=N)(=O)C)C4=C5C=CNC5=NC=C4 [AZD6738], the Bliss excess in the assay with U-698-M [1] (partner max 10 µM) is -0.0616. In addition, the “combination Emax” value in the assay with U-698-M [2] (partner max 10 µM, 7x7) was 0.912.

Consider `COc1nnc2ccc(N3CCC(c4ccc(OCCN5CCN(C)C(=O)[C@H]5C)cc4)CC3)nn12` [AZD5153] + Cc1c2c(nn1C)CSCc1cc(n(C)n1)CSc1cc(c3ccccc3c1)OCCCc1c(C(=O)O)n(C)c3c-2c(Cl)ccc13 [AZD5991], for which the Bliss excess in the assay with U-698-M [1] (partner max 1 µM) was -0.0271. In addition, in the assay with U-698-M [2] (partner max 1 µM, 7x7), the “combination Emax” value was 0.998.

Regarding `COc1nnc2ccc(N3CCC(c4ccc(OCCN5CCN(C)C(=O)[C@H]5C)cc4)CC3)nn12` [AZD5153] + Cn1cnc2c(F)c(Nc3ccc(Br)cc3Cl)c(C(=O)NOCCO)cc21 [Selumetinib], in the assay on U-698-M [1] (partner max 10 µM), the Bliss excess is -0.0573. For the same compound, in the assay on U-698-M [2] (partner max 10 µM, 7x7), the “combination Emax” value was determined as 0.622.

Take `Cc1c2c(nn1C)CSCc1cc(n(C)n1)CSc1cc(c3ccccc3c1)OCCCc1c(C(=O)O)n(C)c3c-2c(Cl)ccc13` [AZD5991] + C1CN(CCC1(C(=O)N[C@@H](CCO)C2=CC=C(C=C2)Cl)N)C3=NC=NC4=C3C=CN4 [Capivasertib]: the Bliss excess with U-698-M [1] (partner max 3 µM) was -0.0016. Moreover, the “combination Emax” value with U-698-M [2] (setting [3]) was determined as 1.

Consider `Cc1c2c(nn1C)CSCc1cc(n(C)n1)CSc1cc(c3ccccc3c1)OCCCc1c(C(=O)O)n(C)c3c-2c(Cl)ccc13` [AZD5991] + CC1(C)CCC(CN2CCN(c3ccc(C(=O)NS(=O)(=O)c4ccc(NCC5CCOCC5)c([N+](=O)[O-])c4)c(Oc4cnc5[nH]ccc5c4)c3)CC2)=C(c2ccc(Cl)cc2)C1 [Venetoclax], for which, in the assay with U-698-M [1] (partner max 1 µM), the Bliss excess is -0.0069. Besides, in the assay with U-698-M [2] (setting [4]), the “combination Emax” value was determined as 1.

On to `Cc1c2c(nn1C)CSCc1cc(n(C)n1)CSc1cc(c3ccccc3c1)OCCCc1c(C(=O)O)n(C)c3c-2c(Cl)ccc13` [AZD5991] + CC(=O)O[C@H]1C(=O)[C@@]2(C)[C@H]([C@H](OC(=O)c3ccccc3)[C@]3(O)C[C@H](OC(=O)[C@H](O)[C@@H](NC(=O)c4ccccc4)c4ccccc4)C(C)=C1C3(C)C)[C@]1(OC(C)=O)CO[C@@H]1C[C@@H]2O [Paclitaxel], for which the Bliss excess in the assay with U-698-M [1] (partner max 3 µM) is -0.0123. Further, the “combination Emax” value in the assay with U-698-M [2] (setting [3]) turned out to be 1.

For `Cc1c2c(nn1C)CSCc1cc(n(C)n1)CSc1cc(c3ccccc3c1)OCCCc1c(C(=O)O)n(C)c3c-2c(Cl)ccc13` [AZD5991] + CCN(CCO)CCCOc1ccc2c(Nc3cc(CC(=O)Nc4cccc(F)c4)[nH]n3)ncnc2c1 [AZD2811], the Bliss excess in the assay on U-698-M [1] (partner max 1 µM) stood at 0.0024. The “combination Emax” value in the assay with U-698-M [2] (setting [4]) came out at 1.

Consider `Cc1c2c(nn1C)CSCc1cc(n(C)n1)CSc1cc(c3ccccc3c1)OCCCc1c(C(=O)O)n(C)c3c-2c(Cl)ccc13` [AZD5991] + CN(C)CCCOc1ccc(-c2ccc3ncc4c(c3c2)n(C2CCOCC2)c(=O)n4C)cn1 [AZD0156], for which the Bliss excess in the assay on U-698-M [1] (partner max 1 µM) was 0.0036. In addition, the “combination Emax” value with U-698-M [2] (setting [4]) worked out at 1.

Turning to `Cc1c2c(nn1C)CSCc1cc(n(C)n1)CSc1cc(c3ccccc3c1)OCCCc1c(C(=O)O)n(C)c3c-2c(Cl)ccc13` [AZD5991] + CS(=O)(=O)CCNCc1ccc(-c2ccc3ncnc(Nc4ccc(OCc5cccc(F)c5)c(Cl)c4)c3c2)o1 [Lapatinib], the Bliss excess with U-698-M [1] (partner max 10 µM) came to 0.0295. In addition, the “combination Emax” value in the assay on U-698-M [2] (partner max 10 µM, 7x7) stood at 0.992.

Take `Cc1c2c(nn1C)CSCc1cc(n(C)n1)CSc1cc(c3ccccc3c1)OCCCc1c(C(=O)O)n(C)c3c-2c(Cl)ccc13` [AZD5991] + C[C@@H]1COCCN1C2=NC(=NC(=C2)C3(CC3)[S@](=N)(=O)C)C4=C5C=CNC5=NC=C4 [AZD6738]: in the assay with U-698-M [1] (partner max 10 µM), the Bliss excess was -0.0194. Besides, in the assay on U-698-M [2] (partner max 10 µM, 7x7, may be a limit of the assay), the “combination Emax” value came to 1.
